Laboratory results as given in ChEMBL document CHEMBL1201862, “PubChem BioAssay data set” (2004).
Activity calls are given as the source filed them.

Columns and labels:
Large T antigen = Large T antigen (Simian virus 40, UniProt P03070); format: functional, Betapolyomavirus macacae;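 further: Confirmatory-stage PubChem screen for compounds that inhibit SV40 T antigen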
[1] = molecular target: DNA dC->dU-editing enzyme APOBEC-3A (Homo sapiens, UniProt P31941); test: A3A deaminase inhibition for selectivity – biochemical, dose response (AID 504722); format: functional
Sequence of DNA dC->dU-editing enzyme APOBEC-3A (P31941 whole entry): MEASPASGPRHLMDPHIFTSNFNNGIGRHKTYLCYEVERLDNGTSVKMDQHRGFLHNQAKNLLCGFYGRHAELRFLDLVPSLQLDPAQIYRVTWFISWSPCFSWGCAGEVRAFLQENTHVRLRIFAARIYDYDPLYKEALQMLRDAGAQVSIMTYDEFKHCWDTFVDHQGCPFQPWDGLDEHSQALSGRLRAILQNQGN

[2] = molecular target: Glucose-6-phosphate 1-dehydrogenase (Homo sapiens, UniProt P11413); test: inhibition of Homo sapiens G6PD, dose series – biochemical, fluorescence, selectivity assay for P. falciparum G6PD inhibitor project, dose response (AID 504792); format: functional
Sequence of Glucose-6-phosphate 1-dehydrogenase (P11413 whole entry): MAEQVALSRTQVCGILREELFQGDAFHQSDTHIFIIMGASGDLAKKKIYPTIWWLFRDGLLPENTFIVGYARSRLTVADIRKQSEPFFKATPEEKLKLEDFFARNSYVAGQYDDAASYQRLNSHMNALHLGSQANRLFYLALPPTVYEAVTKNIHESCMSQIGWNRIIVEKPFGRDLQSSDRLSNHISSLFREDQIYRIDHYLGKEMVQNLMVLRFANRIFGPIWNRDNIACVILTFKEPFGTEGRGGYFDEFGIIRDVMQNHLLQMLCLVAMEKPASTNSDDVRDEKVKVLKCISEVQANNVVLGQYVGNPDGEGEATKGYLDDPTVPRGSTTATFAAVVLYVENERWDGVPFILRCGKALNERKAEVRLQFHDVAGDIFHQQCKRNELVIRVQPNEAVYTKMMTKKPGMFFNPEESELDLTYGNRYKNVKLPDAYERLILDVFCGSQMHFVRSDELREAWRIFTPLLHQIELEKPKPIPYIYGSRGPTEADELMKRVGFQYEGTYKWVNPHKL

[3] = molecular target: DNA dC->dU-editing enzyme APOBEC-3G (Homo sapiens, UniProt Q9HC16); test: Dose Response confirmation of small molecule APOBEC3G DNA Deaminase Inhibitors via a fluorescence-based single-stranded DNA deaminase assay. [Related pubchem assays (depositor defined):AID493012, AID493028]; format: functional
Sequence of DNA dC->dU-editing enzyme APOBEC-3G (Q9HC16 whole entry): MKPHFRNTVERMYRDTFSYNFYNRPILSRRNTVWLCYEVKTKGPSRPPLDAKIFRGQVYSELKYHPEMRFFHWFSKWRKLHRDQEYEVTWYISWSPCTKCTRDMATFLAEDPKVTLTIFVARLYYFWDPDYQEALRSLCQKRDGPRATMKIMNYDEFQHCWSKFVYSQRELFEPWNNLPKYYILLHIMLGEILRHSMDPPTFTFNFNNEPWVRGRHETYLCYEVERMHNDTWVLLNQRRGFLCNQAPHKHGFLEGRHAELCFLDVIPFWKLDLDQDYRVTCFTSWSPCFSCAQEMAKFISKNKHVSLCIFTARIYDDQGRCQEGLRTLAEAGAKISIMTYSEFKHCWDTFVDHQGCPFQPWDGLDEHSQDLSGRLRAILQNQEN

[4] = molecular target: Mitochondrial peptide methionine sulfoxide reductase (Bos taurus, UniProt P54149); test: Absorbance-based biochemical high throughput dose response assay for activators of Methionine sulfoxide reductase A (MsrA).; format: functional
Sequence of Mitochondrial peptide methionine sulfoxide reductase (P54149 whole entry): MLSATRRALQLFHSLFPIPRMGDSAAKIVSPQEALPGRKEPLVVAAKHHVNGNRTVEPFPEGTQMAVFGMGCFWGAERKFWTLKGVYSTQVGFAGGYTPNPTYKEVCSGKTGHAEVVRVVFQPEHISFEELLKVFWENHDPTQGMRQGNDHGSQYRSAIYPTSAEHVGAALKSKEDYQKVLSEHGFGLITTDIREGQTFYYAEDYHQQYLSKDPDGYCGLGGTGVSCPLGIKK

[5] = reduction of Shn3 3'UTR-driven luciferase in osteoblasts – cell-based, Clone20 osteoblasts, firefly luciferase, cherry-picked, dose response (AID 624132); format: functional;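 further: firefly luciferase luminescence from reporter carrying the Shn3 3'UTR in osteoblasts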
[6] = loss of viability in HepG2 cells – cell-based, CellTiter-Glo, cherry-picked, cytotoxicity control for Shn3 inhibitor project, dose response (AID 624134); format: functional
Protein Wnt-3a = Protein Wnt-3a (Mus musculus, UniProt P27467); test: antagonism of Wnt3a pathway luciferase reporter – Wnt-LIGHT cells, luminescence, selectivity assay for Gli-SUFU antagonist project, dose response (AID 651570); format: functional; conditions: read-out: IC50_Mean;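 further: Wnt-LIGHT reporter cells stimulated with conditioned medium from Wnt3a-producing cells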
Sequence of Protein Wnt-3a (P27467 whole entry): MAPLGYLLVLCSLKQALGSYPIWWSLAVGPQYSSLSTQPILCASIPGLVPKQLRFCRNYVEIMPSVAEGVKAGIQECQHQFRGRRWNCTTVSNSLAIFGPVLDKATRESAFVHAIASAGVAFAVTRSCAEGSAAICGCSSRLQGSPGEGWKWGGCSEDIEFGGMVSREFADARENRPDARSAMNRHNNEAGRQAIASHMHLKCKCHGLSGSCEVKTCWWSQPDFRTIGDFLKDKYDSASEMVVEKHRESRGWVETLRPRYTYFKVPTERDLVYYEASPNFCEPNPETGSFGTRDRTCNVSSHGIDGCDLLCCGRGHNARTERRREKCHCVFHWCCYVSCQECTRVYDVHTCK

BJ [7] = test: BJ-TERT fibroblast viability loss – cell-based, RAS-independent, luminescence, dose response (AID 1933); format: functional; conditions: Homo sapiens
BJ [8] = test: cells; format: functional, cell-based; conditions: Homo sapiens
BJ [9] = test: BJ-TERT-LT-ST fibroblast viability loss – cell-based, RAS-independent, luminescence, dose response (AID 1935); format: functional; conditions: Homo sapiens;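 further: BJ fibroblasts immortalized with TERT plus LT and ST oncogenes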
[10] = DRD fibroblast viability loss – cell-based, non-viral oncogenic, luminescence, dose response (AID 1934); format: functional; conditions: Homo sapiens
BJ [11] = test: growth inhibition of engineered Ras-driven BJ cells – cell-based, alamar blue fluorescence, cherrypicked samples, dose response (AID 2631); format: functional; conditions: Homo sapiens;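 further: confirmatory dose-response assay in RAS-dependent BJ fibroblasts engineered with TERT, LT and ST, with cytotoxicity read by fluorescence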
Vero [12] = test: cells; format: functional, cell-based; conditions: Chlorocebus sabaeus
Vero [13] = test: cells; format: functional; conditions: Chlorocebus sabaeus
[14] = luciferase reporter signal suppression in cells – H4 neuroglioma cells, luminescence, dose response (AID 1990); format: functional, cell-based
[15] = Luminescence Cell-Based Dose Response HTS to Identify Inhibitors of 5'UTR Stem-Loop Driven Prion Protein mRNA Translation in H4 Neuroglioblastoma Cells. [Related pubchem assays: 1827 (Project Summary), 1813 (Primary HTS)]; format: functional
[16] = alpha-synuclein stem-loop luciferase translation blockers – H4 neuroglioma cells, luminescence, confirmation (AID 1988); format: functional, cell-based
[17] = HEK-293T cell viability reduction – luminescence, B-cell screen hits, cytotoxicity control for BCR NF-kB inhibitor project, dose response (AID 489021); format: functional, cell-based;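 further: HEK-293T cells carrying an NF-kB luciferase reporter; cells exposed to compound for about 14 hours before viability readout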
INS1 = test: INS-1E survival protection against cytokine death – cell-based, luminescence, retest, dose response (AID 449756); format: functional; conditions: Rattus norvegicus;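 further: cell death triggered by IL-1 beta plus TNF-alpha plus IFN-gamma mixture; protective hits raise ATP signal compared with cytokine alone wells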
[18] = decrease of insulin promoter-GFP reporter – imaging, high-content screening, mouse beta cells (AID 1628); format: functional; conditions: MIN6
[19] = MIN6 cell viability loss – mouse insulinoma, cytotoxicity control, dose response (AID 2122); format: functional;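 further: confirmatory high-throughput counterscreen run to flag cytotoxic compounds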
[20] = viability of PTEN-deleted HCT116 cells – cell-based, HCT116 PTEN knockout, dose response (AID 1047); format: functional;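 further: HCT116 colon tumor cells with PTEN knocked out; cells exposed to compound for 60 hours before readout; potency for loss of cell viability measured by luminescence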
[21] = viability of HCT116 lacking mutant beta-catenin – cell-based, human colon tumor, dose response (AID 1045); format: functional;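 further: HCT116 colon tumor cells with beta catenin knocked out; cells exposed to compound for 60 hours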
[22] = molecular target: T1, Heat shock factor protein 1 (Mus musculus, UniProt P38532); test: enhancement of HSF1-driven luciferase signal – cell-based, NIH3T3, luminescence, dose retest, confirmation (AID 435004); format: functional;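 further: stress induced by proteasome inhibitor MG132 added 30 min after compound; luciferase reporter driven by HSF1 response element in NIH3T3 cells; actives raise luminescence as potentiators of the MG132 stress response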
T1 sequence (P38532 whole entry): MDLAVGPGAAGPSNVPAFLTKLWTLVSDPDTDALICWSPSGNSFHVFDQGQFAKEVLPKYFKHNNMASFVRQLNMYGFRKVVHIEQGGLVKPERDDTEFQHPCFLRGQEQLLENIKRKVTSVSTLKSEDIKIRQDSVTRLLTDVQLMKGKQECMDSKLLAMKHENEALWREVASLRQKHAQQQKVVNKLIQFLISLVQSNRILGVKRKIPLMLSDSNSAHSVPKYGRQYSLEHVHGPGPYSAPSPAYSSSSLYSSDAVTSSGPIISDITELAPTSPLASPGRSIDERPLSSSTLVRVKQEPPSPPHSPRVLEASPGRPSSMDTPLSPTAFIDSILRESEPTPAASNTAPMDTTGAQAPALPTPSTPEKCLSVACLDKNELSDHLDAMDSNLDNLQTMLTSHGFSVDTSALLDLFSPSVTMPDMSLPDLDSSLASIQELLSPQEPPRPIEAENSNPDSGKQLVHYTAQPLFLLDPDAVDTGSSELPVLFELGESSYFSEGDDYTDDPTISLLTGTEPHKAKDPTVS

[23] = molecular target: T2, High affinity choline transporter 1 (Homo sapiens, UniProt Q9GZV3); test: human choline transporter blockers, potency – cell-based, 5-point CRC, membrane potential dye, dose response (AID 504840); format: functional
T2 sequence (Q9GZV3 whole entry): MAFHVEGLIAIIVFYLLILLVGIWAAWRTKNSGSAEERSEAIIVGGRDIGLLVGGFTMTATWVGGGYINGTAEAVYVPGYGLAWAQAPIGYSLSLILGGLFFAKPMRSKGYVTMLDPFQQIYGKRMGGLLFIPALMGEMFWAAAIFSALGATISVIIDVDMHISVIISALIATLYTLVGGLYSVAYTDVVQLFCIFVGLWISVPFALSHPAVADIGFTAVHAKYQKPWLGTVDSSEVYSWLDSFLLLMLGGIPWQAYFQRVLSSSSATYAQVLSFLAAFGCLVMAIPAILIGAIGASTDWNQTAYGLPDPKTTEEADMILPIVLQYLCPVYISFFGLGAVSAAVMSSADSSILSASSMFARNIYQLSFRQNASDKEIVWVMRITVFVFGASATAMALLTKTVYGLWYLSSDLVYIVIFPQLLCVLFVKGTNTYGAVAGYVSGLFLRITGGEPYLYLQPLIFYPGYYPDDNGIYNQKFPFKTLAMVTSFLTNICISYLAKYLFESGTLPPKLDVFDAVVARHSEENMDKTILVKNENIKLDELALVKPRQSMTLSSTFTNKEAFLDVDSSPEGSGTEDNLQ

[24] = molecular target: T2, High affinity choline transporter 1; test: human choline transporter blockers, potency – cell-based, 10-point CRC, membrane potential dye, dose response (AID 588401); format: functional;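 further: membrane potential dye fluorescence of choline-evoked depolarization via CHT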

Sequence of Large T antigen (P03070 whole entry): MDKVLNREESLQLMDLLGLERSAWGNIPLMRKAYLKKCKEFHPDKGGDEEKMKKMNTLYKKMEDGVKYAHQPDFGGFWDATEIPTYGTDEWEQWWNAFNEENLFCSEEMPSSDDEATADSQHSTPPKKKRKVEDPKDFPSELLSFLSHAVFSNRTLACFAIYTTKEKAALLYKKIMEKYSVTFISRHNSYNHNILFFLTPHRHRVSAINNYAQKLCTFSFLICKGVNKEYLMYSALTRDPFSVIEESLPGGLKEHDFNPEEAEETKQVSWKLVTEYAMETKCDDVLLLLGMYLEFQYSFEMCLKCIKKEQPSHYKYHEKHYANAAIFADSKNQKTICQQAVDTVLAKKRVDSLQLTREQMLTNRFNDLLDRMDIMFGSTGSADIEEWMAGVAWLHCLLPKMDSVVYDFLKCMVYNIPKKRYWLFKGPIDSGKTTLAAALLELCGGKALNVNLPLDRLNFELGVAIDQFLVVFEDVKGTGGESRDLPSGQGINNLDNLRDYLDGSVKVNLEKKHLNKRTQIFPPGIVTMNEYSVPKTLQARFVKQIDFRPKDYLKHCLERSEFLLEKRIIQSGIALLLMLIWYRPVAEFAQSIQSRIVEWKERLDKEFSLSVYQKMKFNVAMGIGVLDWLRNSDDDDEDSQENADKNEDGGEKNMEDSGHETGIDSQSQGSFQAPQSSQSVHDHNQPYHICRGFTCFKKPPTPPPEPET

c1ccc(SSc2ccccn2)nc1
IC50 (Large T antigen): > 100 µM (active) | IC50 [1]: > 100 µM (inactive) | IC50 [2]: > 80 µM (inactive) | IC50 [3]: 3.88 µM (active) | EC50 [4]: > 104 µM (inactive)

COc1cc(NS(=O)(=O)c2ccc(C)cc2C)cc(OC)c1OC
AC50 [5]: 4.95 µM (active) | AC50 [6]: 5.37 µM (active) | IC50 (Protein Wnt-3a): 1.38 µM (active)

CC1=CC(=O)C=C(C)C1=NOc1ccccc1[N+](=O)[O-]
EC50 (BJ [7]): 17.2 µM (inconclusive) | EC50 (BJ [8]): 11.1 µM (inconclusive) | EC50 (BJ [9]): > 75 µM (not active) | EC50 [10]: > 150 µM (not active) | EC50 (BJ [11]): > 66.7 µM (inactive)

CCOc1ccc(/C=C/c2nc(C#N)c(NCCCN(C)C)o2)cc1
IC50 (Vero [12]): 21.1 µM (active) | CC50 (Vero [13]): > 25 µM (active)

CC1CC(C)CN(S(=O)(=O)c2ccc(C(=O)NCCCn3ccnc3)cc2)C1 (configuration not stated)
EC50 [14]: 0.527 µM (active) | EC50 (BJ [7]): > 150 µM (not active) | EC50 [15]: 0.873 µM (active) | EC50 [16]: 0.163 µM (active) | EC50 (BJ [8]): 5.76 µM (inconclusive) | EC50 (BJ [9]): 4.2 µM (inconclusive) | EC50 [10]: 10 µM (inconclusive) | IC50 [17]: > 80 µM (inactive) | EC50 (BJ [11]): 5.61 µM (active) | AC50 (INS1): 0.437 µM (active)

CCC(NC(C)c1ccccc1)=C1C(=O)N(C)C(=O)N(C)C1=O (configuration not stated)
IC50 [18]: 2.84 µM (active) | IC50 [19]: 2.81 µM (active) | EC50 [20]: 47.9 µM (active) | EC50 [21]: 50 µM (active) | EC50 [22]: > 260 µM (inactive) | IC50 [23]: 9.12 µM (active) | IC50 [24]: 8.43 µM (active)
